Assays:
[1] = system: mast cell protease-1 (MCPT-1); experiment: Serum ELISA of mast cell protease-1 after oral OVA challenge; format: in vivo, mice; conditions: 600 μg butyrate per mL infant formula, FIG. 6
[2] = system: GATA-3; conditions: cited from earlier work
[3] = system: female BALB/c mice; experiment: Cumulative clinical score after oral OVA challenge in mice with pre-existing milk (BLG) allergy; format: in vivo; conditions: 600 μg butyrate per mL infant formula ad libitum; 12 oral OVA challenges; compared to Allergic group 1; FIG. 3
From the text: An allergy to milk was induced in female BALB/c mice aged eight weeks by sensitization via epicutaneous application of the milk protein β-lactoglobulin (BLG) (“Allergic group”). At this stage all three “Allergic groups” ([…], […] and Allergic group 3) were subjected to the same sensitization via epicutaneous application of the milk protein β-lactoglobulin (BLG) treatment. The non-allergic negative control group received phosphate buffered saline (PBS) only (“Control group”). Three patches were applied in total, each separated by a week without patch in between. Six days following the final skin patch, mice were orally challenged with BLG following a conventional procedure known to those skilled in the art. Serum was processed for ELISA and BLG-specific Immunoglobulin E (IgE) and BLG-specific Immunoglobulin G1 (IgG1) were determined (FIGS. 1 and 2 respectively).
Following the induction of milk allergy, “Control group” and “Allergic group 1” received infant formula for nutritional management of cow's milk allergy (the extensively hydrolyzed infant formula available commercially under the Trademark Althéra® was used in this example) reconstituted in the drinking water for a three-week period. […]

[4] = system: OVA-specific IgE, OVA-specific IgG1; experiment: Serum ELISA of OVA-specific IgE and IgG1 after oral OVA challenge; format: in vivo, mice; conditions: 600 μg butyrate per mL infant formula, compared across the three Allergic groups

CCCC(=O)[O-].[Na+] [sodium butyrate]
Mast cell protease-1 (MCPT-1) [1]: reduction in mast cell protease-1
GATA-3 or FoxP3 expression ([2]; 0.1 mM, CD4+ T cells under Th2 polarizing conditions (Furusawa 2013)): insufficient to influence GATA-3 or FoxP3 expression
Gata3 expression ([2]; 1 mM in vitro, Th2 polarized CD4+ T cells (Kespohl 2017)): sufficient to ameliorate Gata3 expression
Allergic symptoms (cumulative clinical score) [3]: reduction of allergic symptoms
OVA-specific IgE level ([4]; FIG. 4): similar
OVA-specific IgG1 level ([4]; FIG. 5): similar

From patent US20250205189A1, “DIETARY BUTYRATE FOR TREATING OR PREVENTING AN ALLERGIC DISORDER” (SOCIETE DES PRODUITS NESTLE S.A., priority 2018, published 2025)
